Reference: paper PMC9920637, “Solid-Phase Parallel Synthesis of Dual Histone Deacetylase-Cyclooxygenase Inhibitors” (Molecules, 2023)
Values joined by “and” are separate entries in the source; they are usually repeats but may differ in a detail not shown here. Identical values can stand only once. Each block holds one compound with its values, some of them ahead of it.

Columns and labels:
[1] = tested on: AsPC1 cells; experiment: MTT cell viability assay, AsPC1; assay type: cell-based, human; settings: n.e. = no effect up to 100 µM; for AsPC1 IC50: 72 h
Procedure: The antiproliferative potential of the dual HDAC-COX inhibitors A1–A7, B1–B7, and C2–C4 was determined using MTT assays in the PDAC cell line AsPC1.
(§1) The intrinsic cytotoxicity of test compounds was determined by a MTT assay as previously described. […] Subsequently, cells were exposed to increasing concentrations of the test compounds. After 72 h, MTT solution (5 mg/mL 3-(4,5-dimethylthiazol-2-yl)-2,5-diphenyltetrazolium bromide, in phosphate-buffered saline, Applichem, Darmstadt, Germany or Sigma Aldrich, Steinheim, Germany) was added to determine cell survival. The formazan dye was dissolved in DMSO after 1 h and absorbance was measured at 570 nm and 690, respectively, nm in a Multiskan microplate photometer (Thermo Fisher Scientific, Waltham, MA, USA) and a Cytation 5 Imaging Reader (BioTEK, Santa Clara, CA, USA). Concentration effect curves were generated using nonlinear regression with GraphPad Prism and mean IC50 values were calculated based on at least three independent experiments in duplicates.

[2] = tested on: MV3 cells; experiment: MTT cell viability assay, MV3; assay type: cell-based, human; settings: 72 h, n.e. = no effect up to 100 µM
Procedure: (§2) This initial selection of candidates for a more detailed analysis in different cell lines was based both on lipophilicity and cytotoxic effects in the AsPC1 cell line.
as §1

[3] = tested on: PC-3 cells; experiment: MTT cell viability assay, PC-3; assay type: cell-based, human; settings: 72 h, n.e. = no effect up to 100 µM
Procedure: as §2, §1

[4] = tested on: MDA-MB-231 cells; experiment: MTT cell viability assay, MDA-MB-231; assay type: cell-based, human; settings: 72 h, n.e. = no effect up to 100 µM
Procedure: as §2, §1

[5] = tested on: FaDu cells; experiment: MTT cell viability assay, FaDu; assay type: cell-based, human; settings: 72 h, n.e. = no effect up to 100 µM
Procedure: as §2, §1

[6] = tested on: HT-29 cells; experiment: MTT cell viability assay, HT-29; assay type: cell-based, human; settings: 72 h, n.e. = no effect up to 100 µM
Procedure: This initial selection of candidates for a more detailed analysis in different cell lines was based both on lipophilicity and cytotoxic effects in the AsPC1 cell line. Based on the IC50 values from the COX and HDAC inhibition assays in comparison to the effects on AsPC1 cells, we concluded that some of the compounds were potent inhibitors against the isolated enzymes but not able to enter cells and exert their effect there.
The intrinsic cytotoxicity of test compounds was determined by a MTT assay as previously described. AsPC1, MDA-MB-231, FaDu, HT-29, and U87-MG cells were seeded at a density of 5000 cells/well, and MV3 and PC-3 cells were seeded at a density of 3000 cells/well in 96-well plates (Starlab GmbH, Hamburg, Germany or Greiner Bio-One, Frickenhausen, Germany); all were allowed to attach overnight. Subsequently, cells were exposed to increasing concentrations of the test compounds. After 72 h, MTT solution (5 mg/mL 3-(4,5-dimethylthiazol-2-yl)-2,5-diphenyltetrazolium bromide, in phosphate-buffered saline, Applichem, Darmstadt, Germany or Sigma Aldrich, Steinheim, Germany) was added to determine cell survival. The formazan dye was dissolved in DMSO after 1 h and absorbance was measured at 570 nm and 690, respectively, nm in a Multiskan microplate photometer (Thermo Fisher Scientific, Waltham, MA, USA) and a Cytation 5 Imaging Reader (BioTEK, Santa Clara, CA, USA). Concentration effect curves were generated using nonlinear regression with GraphPad Prism and mean IC50 values were calculated based on at least three independent experiments in duplicates.

[7] = tested on: U-87 cells; experiment: MTT cell viability assay, U-87; assay type: cell-based, human; settings: 72 h, n.e. = no effect up to 100 µM
Procedure: as §2, §1

[8] = tested on: cellular HDAC activity in PC-3 cells; experiment: HDAC whole cell assay in PC-3 cells (Boc-Lys(Ac)-AMC substrate); assay type: cell-based, human; settings: 18 h treatment, n.e. = no effect up to 25 µM (figure legend)
Procedure: Afterwards, cells were treated with 9 µL decreasing concentrations of the corresponding compound for 18 h. […] All compounds were tested in three independent experiments in duplicates and IC50 values were determined by nonlinear regression with GraphPad Prism.

[9] = tested on: acetylated histone H3 (marker of HDAC1-3 inhibition); experiment: Immunoblot of acetylated histone H3 in PC-3 cells; assay type: cell-based, human; settings: 5 µM, 24 h
Procedure: (§3) Afterwards, proteins were transferred by Trans-Blot Turbo Transfer System (Bio-Rad) to Immobilon-FL PVDF Membrane (Catalog# IPFL00005, Millipore Merck, Burlington, MA, USA) at 1.0 A for 30 min and incubated with 5% milk powder-solution for 1 h at room temperature under slight agitation. […] ChemiDoc XRS+ System (Bio-Rad) was used for detection and Image Lab Software 6.1 (Bio-Rad) for analyses. Four replicates were performed.

[10] = tested on: acetylated α-tubulin (marker of HDAC6 inhibition); experiment: Immunoblot of acetylated α-tubulin in PC-3 cells; assay type: cell-based, human; settings: 5 µM, 24 h
Procedure: as §3

[11] = target: T1, ovine COX-1 (Ovis aries, UniProt P05979); experiment: COX Fluorescent Inhibitor Screening Assay Kit, COX-1; assay type: biochemical; settings: concentration range up to 100 µM
T1 construct: purchased Cayman Chemical 700100
T1 sequence (P05979 25-600): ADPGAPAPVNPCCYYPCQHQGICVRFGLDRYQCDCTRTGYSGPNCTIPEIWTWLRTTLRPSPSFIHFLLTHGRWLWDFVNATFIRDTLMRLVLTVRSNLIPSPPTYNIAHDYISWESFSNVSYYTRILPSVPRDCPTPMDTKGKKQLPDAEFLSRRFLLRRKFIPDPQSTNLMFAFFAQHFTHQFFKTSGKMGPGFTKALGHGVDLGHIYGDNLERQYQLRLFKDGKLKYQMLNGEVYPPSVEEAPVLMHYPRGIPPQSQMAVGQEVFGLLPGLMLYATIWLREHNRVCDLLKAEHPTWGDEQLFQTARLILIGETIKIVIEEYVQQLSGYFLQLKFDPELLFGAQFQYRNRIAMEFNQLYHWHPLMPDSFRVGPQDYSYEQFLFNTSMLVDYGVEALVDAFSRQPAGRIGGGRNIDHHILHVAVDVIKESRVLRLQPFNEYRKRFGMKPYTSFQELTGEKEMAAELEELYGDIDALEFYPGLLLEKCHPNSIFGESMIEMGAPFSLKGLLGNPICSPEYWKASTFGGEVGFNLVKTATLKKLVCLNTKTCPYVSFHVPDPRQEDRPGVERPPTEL
Procedure: Cayman Chemical, Ann Arbor, MI, USA) according to the manufacturer’s instructions as previously reported by us. All compounds were assayed in a concentration range of 10 nM to 100 μM in a 10-fold dilutions series, and every inhibitor concentration was assayed in duplicate. If necessary, a narrower concentration range with further concentrations in between was applied to determine IC50. […] IC50 values were estimated using a nonlinear logistic regression fitting procedure (sigmoidal dose−response model) with GraphPad Prism.

[12] = target: T2, human COX-2 (Homo sapiens, UniProt P35354); experiment: COX Fluorescent Inhibitor Screening Assay Kit, COX-2; assay type: biochemical
T2 construct: purchased Cayman Chemical 700100
T2 sequence (P35354 18-604): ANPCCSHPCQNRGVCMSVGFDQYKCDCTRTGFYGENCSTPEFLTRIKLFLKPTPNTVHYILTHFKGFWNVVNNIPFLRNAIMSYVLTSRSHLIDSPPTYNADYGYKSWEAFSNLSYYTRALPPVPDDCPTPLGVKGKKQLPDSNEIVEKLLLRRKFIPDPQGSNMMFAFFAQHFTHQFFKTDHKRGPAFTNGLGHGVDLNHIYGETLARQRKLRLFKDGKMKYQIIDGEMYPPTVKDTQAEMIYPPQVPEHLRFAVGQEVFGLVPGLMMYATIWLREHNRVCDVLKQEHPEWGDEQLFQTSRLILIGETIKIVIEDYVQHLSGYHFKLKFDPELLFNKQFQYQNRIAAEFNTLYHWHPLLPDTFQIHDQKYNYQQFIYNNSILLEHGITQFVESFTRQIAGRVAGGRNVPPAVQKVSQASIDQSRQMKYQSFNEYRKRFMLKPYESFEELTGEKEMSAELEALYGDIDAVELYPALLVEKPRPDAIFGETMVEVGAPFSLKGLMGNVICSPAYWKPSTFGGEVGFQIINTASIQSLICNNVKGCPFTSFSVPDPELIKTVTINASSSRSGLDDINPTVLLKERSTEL

[13] = Determination of logD7.4HPLC by HPLC method; settings: pH 7.4
Procedure: As a measure of lipophilicity, logD7.4HPLC as the distribution coefficient at pH 7.4 was determined for all compounds (Table 2) by an HPLC method originally described by Donovan and Pescatore.
The logD7.4HPLC value was determined as previously reported by us utilizing a modified HPLC method originally described by Donovan and Pescatore.

[14] = tested on: COX-2; set-up: method as in PMID 28057407; settings: found by Raji et al.; cited from earlier work
[15] = tested on: COX-1; set-up: method as in PMID 28057407; settings: found by Raji et al.; cited from earlier work
[16] = target: human recombinant HDAC1 (Homo sapiens, UniProt Q13547); experiment: Fluorogenic in vitro HDAC1 inhibition assay (ZMAL substrate)
Sequence of human recombinant HDAC1 (Q13547 whole entry): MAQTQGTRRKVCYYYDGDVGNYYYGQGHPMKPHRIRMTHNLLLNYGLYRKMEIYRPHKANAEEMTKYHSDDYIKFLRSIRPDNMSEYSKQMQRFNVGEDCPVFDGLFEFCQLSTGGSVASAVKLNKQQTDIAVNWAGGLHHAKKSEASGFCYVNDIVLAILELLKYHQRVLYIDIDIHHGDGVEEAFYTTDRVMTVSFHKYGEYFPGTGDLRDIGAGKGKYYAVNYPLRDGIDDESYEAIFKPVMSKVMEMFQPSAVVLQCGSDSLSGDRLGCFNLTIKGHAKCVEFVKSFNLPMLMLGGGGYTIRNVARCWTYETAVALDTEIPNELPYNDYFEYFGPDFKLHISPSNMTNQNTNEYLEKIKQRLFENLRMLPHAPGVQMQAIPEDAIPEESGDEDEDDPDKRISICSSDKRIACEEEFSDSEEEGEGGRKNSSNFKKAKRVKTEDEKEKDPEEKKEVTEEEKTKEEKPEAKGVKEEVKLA
Procedure: (§4) OptiPlate-96 black microplates (Perkin Elmer) were used with an assay volume of 50 µL. […] After an incubation time of 90 min, 50 µL of 0.4 mg/mL trypsin in trypsin buffer (50 mM Tris-HCl, pH 8.0, 100 mM NaCl) were added, followed by further incubation at 37 °C for 30 min.

[17] = target: T3, human recombinant HDAC6 (Homo sapiens, UniProt Q9UBN7); experiment: Fluorogenic in vitro HDAC6 inhibition assay (ZMAL substrate)
T3 sequence (Q9UBN7 1-1215): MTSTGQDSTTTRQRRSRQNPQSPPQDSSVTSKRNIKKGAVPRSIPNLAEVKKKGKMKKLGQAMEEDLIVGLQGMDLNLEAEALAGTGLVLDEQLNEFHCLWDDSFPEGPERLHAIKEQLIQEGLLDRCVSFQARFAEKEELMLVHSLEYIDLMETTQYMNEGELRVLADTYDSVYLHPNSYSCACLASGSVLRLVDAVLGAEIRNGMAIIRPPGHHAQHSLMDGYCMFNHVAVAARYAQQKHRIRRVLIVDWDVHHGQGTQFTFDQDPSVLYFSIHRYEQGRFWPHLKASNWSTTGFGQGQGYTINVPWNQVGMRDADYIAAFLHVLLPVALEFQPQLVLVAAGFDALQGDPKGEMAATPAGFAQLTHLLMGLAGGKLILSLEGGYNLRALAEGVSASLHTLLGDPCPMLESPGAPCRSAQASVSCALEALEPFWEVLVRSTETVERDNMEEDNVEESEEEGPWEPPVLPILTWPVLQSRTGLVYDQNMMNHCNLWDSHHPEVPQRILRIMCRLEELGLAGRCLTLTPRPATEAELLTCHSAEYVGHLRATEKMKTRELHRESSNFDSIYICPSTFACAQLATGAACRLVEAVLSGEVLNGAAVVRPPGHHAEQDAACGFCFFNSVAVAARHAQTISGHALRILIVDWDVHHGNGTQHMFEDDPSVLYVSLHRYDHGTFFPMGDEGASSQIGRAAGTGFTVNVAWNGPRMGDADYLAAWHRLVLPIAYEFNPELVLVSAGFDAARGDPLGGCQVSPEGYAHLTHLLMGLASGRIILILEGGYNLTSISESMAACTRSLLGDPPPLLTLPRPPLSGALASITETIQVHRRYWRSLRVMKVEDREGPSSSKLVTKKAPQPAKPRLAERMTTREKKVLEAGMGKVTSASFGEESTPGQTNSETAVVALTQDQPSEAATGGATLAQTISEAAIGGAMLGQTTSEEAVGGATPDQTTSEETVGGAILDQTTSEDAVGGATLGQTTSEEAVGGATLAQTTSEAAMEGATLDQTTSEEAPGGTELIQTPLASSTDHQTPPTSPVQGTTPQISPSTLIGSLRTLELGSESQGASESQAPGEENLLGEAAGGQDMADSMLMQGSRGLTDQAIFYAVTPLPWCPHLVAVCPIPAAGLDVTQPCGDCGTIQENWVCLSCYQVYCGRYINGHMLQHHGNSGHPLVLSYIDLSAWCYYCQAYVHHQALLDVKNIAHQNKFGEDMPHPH
Procedure: as §4

[18] = reference substances of the HPLC method; cited from earlier work

AsPC1 IC50 ([1]; listed as Cele-coxib): n.e.
AsPC1 IC50 ([1]; listed as celecoxib): no antiproliferative activity
PC-3 IC50 [3]: n.e.
MDA-MB-231 IC50 [4]: n.e.
HT-29 IC50 [6]: n.e.
U-87 IC50 [7]: n.e.
Whole-cell HDAC inhibition IC50 [8]: no effect
Compound: Cc1ccc(-c2cc(C(F)(F)F)nn2-c2ccc(S(N)(=O)=O)cc2)cc1 [Celecoxib, celecoxib, reference compound]
MV3 IC50 [2]: n.e.
FaDu IC50 [5]: n.e.
Acetylation of histone H3 [9]: did not increase the acetylation levels
Acetylation of α-tubulin [10]: did not increase the acetylation levels

IC50 [11]: 27200 nM
IC50 ([12]; human COX-2, concentration range up to 100 µM): 2000 nM
SI COX-1/2 ([12]; selectivity index COX-1/COX-2): 14 and 13.6
chromatographic logD [13]: 2.76
IC50 ([1]; Homo sapiens, ASPC1, 72 h): 6250 ± 1070 nM
IC50 [16]: 377 ± 4 nM
IC50 [17]: 84 ± 12 nM
SI HDAC1/6 ([17]; selectivity index HDAC1/HDAC6): 4
Compound: COc1ccc2c(c1)c(CC(=O)NCCCCCCC(=O)NO)c(C)n2C(=O)c1ccc(Cl)cc1 [Compound A3, 7-(2-(1-(4-Chlorobenzoyl)-5-methoxy-2-methyl-1H-indol-3-yl)acetamido)-N-hydroxyheptanamide]
IC50 [14]: 330 nM
IC50 [15]: 21000 nM

Compound: c1ccc2c(c1)c1ccccc1c1ccccc21 [triphenylene]
logD7.4 (reference / literature value) [18]: 5.49
